Earlier results in patent publication US20090053319A1 (priority 2007, published 2009).

Settings: pure capsaicinoid; background statement

COc1cc(CNC(=O)CCCC/C=C/C(C)C)ccc1O [Capsaicin]
pungency (Scoville scale): 15,000,000-16,000,000 Scoville units
